Source: PubChem BioAssay AID1918948 (Molecular Pharmacology Branch, DTP, NCI, 2023)

Test system: K-562 leukemia growth, % test/control
Experiment: Anticancer human tumor K-562 cell line growth inhibition;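 further: spheroids exposed to compounds for 7 days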;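 on viability, T/C: 100% = DMSO vehicle wells and lower values mean fewer viable cells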
Conditions: spheroids with HUVEC and MSC; for IC50: curve of first compound; for viability, T/C: stronger effect = lower value
Outline: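 Drug combinations with the LSD1 inhibitor iadademstat tested on tumor cells co-cultured as spheroids with endothelial cells and mesenchymal stem cells. Concentrations descended in half-log increments from clinical Cmax or 10 microM.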

[1] = second compound 0.1 µM, first compound 0.00949 µM
[2] = second compound 0.1 µM, first compound 0.03 µM
[3] = second compound 0.1 µM, first compound 0.0949 µM
[4] = second compound 0.1 µM, first compound 0.3 µM
[5] = second compound 0.316 µM, first compound 0.00949 µM
[6] = second compound 0.316 µM, first compound 0.03 µM
[7] = second compound 0.316 µM, first compound 0.0949 µM
[8] = second compound 0.316 µM, first compound 0.3 µM
[9] = second compound 1 µM, first compound 0.00949 µM
[10] = second compound 1 µM, first compound 0.03 µM
[11] = second compound 1 µM, first compound 0.0949 µM
[12] = second compound 1 µM, first compound 0.3 µM
[13] = second compound 3.16 µM, first compound 0.00949 µM
[14] = second compound 3.16 µM, first compound 0.03 µM
[15] = second compound 3.16 µM, first compound 0.0949 µM
[16] = second compound 3.16 µM, first compound 0.3 µM
[17] = second compound 10 µM, first compound 0.00949 µM
[18] = second compound 10 µM, first compound 0.03 µM
[19] = second compound 10 µM, first compound 0.0949 µM
[20] = second compound 10 µM, first compound 0.3 µM

Q: What does the source list for CC1COCCN1c1cc(C2(S(C)(=N)=O)CC2)nc(-c2ccnc3[nH]ccc23)n1 (stereo not given) + NC1CC1c1ccc(-c2cccc(O)c2)cc1?
A: IC50 (second compound 0.1 µM): 1.59 µM; IC50 (second compound 0.316 µM): 1.58 µM; IC50 (second compound 1 µM): 1.5 µM; IC50 (second compound 3.16 µM): 1.49 µM; IC50 (second compound 10 µM): 1.35 µM; viability, T/C (second compound 0.1 µM, first compound 0.0316 µM): 115%; viability, T/C (second compound 0.1 µM, first compound 0.1 µM): 107%; viability, T/C (second compound 0.1 µM, first compound 0.316 µM): 108%; viability, T/C (second compound 0.1 µM, first compound 1 µM): 77.3%; viability, T/C (second compound 0.1 µM, first compound 3.16 µM): 9.88%; viability, T/C (second compound 0.1 µM, first compound 10 µM): 2.95%; viability, T/C (second compound 0.316 µM, first compound 0.0316 µM): 100%; viability, T/C (second compound 0.316 µM, first compound 0.1 µM): 107%; viability, T/C (second compound 0.316 µM, first compound 0.316 µM): 101%; viability, T/C (second compound 0.316 µM, first compound 1 µM): 77.9%; viability, T/C (second compound 0.316 µM, first compound 3.16 µM): 7.2%; viability, T/C (second compound 0.316 µM, first compound 10 µM): 2.06%; viability, T/C (second compound 1 µM, first compound 0.0316 µM): 105%; viability, T/C (second compound 1 µM, first compound 0.1 µM): 104%; viability, T/C (second compound 1 µM, first compound 0.316 µM): 103%; viability, T/C (second compound 1 µM, first compound 1 µM): 74%; viability, T/C (second compound 1 µM, first compound 3.16 µM): 6.19%; viability, T/C (second compound 1 µM, first compound 10 µM): 1.92%; viability, T/C (second compound 3.16 µM, first compound 0.0316 µM): 109%; viability, T/C (second compound 3.16 µM, first compound 0.1 µM): 105%; viability, T/C (second compound 3.16 µM, first compound 0.316 µM): 99.2%; viability, T/C (second compound 3.16 µM, first compound 1 µM): 72.8%; viability, T/C (second compound 3.16 µM, first compound 3.16 µM): 6.87%; viability, T/C (second compound 3.16 µM, first compound 10 µM): 2.7%; viability, T/C (second compound 10 µM, first compound 0.0316 µM): 105%; viability, T/C (second compound 10 µM, first compound 0.1 µM): 105%; viability, T/C (second compound 10 µM, first compound 0.316 µM): 106%; viability, T/C (second compound 10 µM, first compound 1 µM): 65.7%; viability, T/C (second compound 10 µM, first compound 3.16 µM): 5.01%; viability, T/C (second compound 10 µM, first compound 10 µM): 2.52%

Q: What does the source list for CCN(c1cc(-c2ccc(CN3CCOCC3)cc2)cc(C(=O)NCc2c(C)cc(C)[nH]c2=O)c1C)C1CCOCC1 + NC1CC1c1ccc(-c2cccc(O)c2)cc1?
A: IC50 (second compound 0.1 µM): 2.04 µM; IC50 (second compound 0.316 µM): 1.94 µM; IC50 (second compound 1 µM): 1.79 µM; IC50 (second compound 3.16 µM): 1.65 µM; IC50 (second compound 10 µM): 0.904 µM; viability, T/C [1]: 116%; viability, T/C [2]: 117%; viability, T/C [3]: 116%; viability, T/C [4]: 110%; viability, T/C (second compound 0.1 µM, first compound 0.949 µM): 82.9%; viability, T/C (second compound 0.1 µM, first compound 3 µM): 33.5%; viability, T/C [5]: 115%; viability, T/C [6]: 117%; viability, T/C [7]: 115%; viability, T/C [8]: 108%; viability, T/C (second compound 0.316 µM, first compound 0.949 µM): 80.5%; viability, T/C (second compound 0.316 µM, first compound 3 µM): 31.6%; viability, T/C [9]: 108%; viability, T/C [10]: 111%; viability, T/C [11]: 118%; viability, T/C [12]: 110%; viability, T/C (second compound 1 µM, first compound 0.949 µM): 75.9%; viability, T/C (second compound 1 µM, first compound 3 µM): 28.9%; viability, T/C [13]: 109%; viability, T/C [14]: 111%; viability, T/C [15]: 114%; viability, T/C [16]: 103%; viability, T/C (second compound 3.16 µM, first compound 0.949 µM): 70.8%; viability, T/C (second compound 3.16 µM, first compound 3 µM): 27.7%; viability, T/C [17]: 105%; viability, T/C [18]: 109%; viability, T/C [19]: 109%; viability, T/C [20]: 92.2%; viability, T/C (second compound 10 µM, first compound 0.949 µM): 48.5%; viability, T/C (second compound 10 µM, first compound 3 µM): 20.1%

Q: What does the source list for Nc1ncn(C2CC(O)C(CO)S2)c(=O)n1 (stereo not given) + NC1CC1c1ccc(-c2cccc(O)c2)cc1?
A: IC50 (second compound 0.1 µM): 0.0911 µM; IC50 (second compound 0.316 µM): 0.0844 µM; IC50 (second compound 1 µM): 0.079 µM; IC50 (second compound 3.16 µM): 0.0768 µM; IC50 (second compound 10 µM): 0.0558 µM; viability, T/C (second compound 0.1 µM, first compound 0.000949 µM): 110%; viability, T/C (second compound 0.1 µM, first compound 0.003 µM): 108%; viability, T/C [1]: 107%; viability, T/C [2]: 93.2%; viability, T/C [3]: 48.4%; viability, T/C [4]: 17.1%; viability, T/C (second compound 0.316 µM, first compound 0.000949 µM): 103%; viability, T/C (second compound 0.316 µM, first compound 0.003 µM): 104%; viability, T/C [5]: 103%; viability, T/C [6]: 90.3%; viability, T/C [7]: 45.5%; viability, T/C [8]: 16.3%; viability, T/C (second compound 1 µM, first compound 0.000949 µM): 102%; viability, T/C (second compound 1 µM, first compound 0.003 µM): 103%; viability, T/C [9]: 104%; viability, T/C [10]: 88%; viability, T/C [11]: 42.9%; viability, T/C [12]: 15.6%; viability, T/C (second compound 3.16 µM, first compound 0.000949 µM): 98.5%; viability, T/C (second compound 3.16 µM, first compound 0.003 µM): 105%; viability, T/C [13]: 102%; viability, T/C [14]: 85.6%; viability, T/C [15]: 42.1%; viability, T/C [16]: 16.3%; viability, T/C (second compound 10 µM, first compound 0.000949 µM): 98.8%; viability, T/C (second compound 10 µM, first compound 0.003 µM): 101%; viability, T/C [17]: 98%; viability, T/C [18]: 72.6%; viability, T/C [19]: 30.5%; viability, T/C [20]: 12.3%
